Converted amounts (≈) assume the structure as drawn.
Columns and labels:
[1] = test system: Candida albicans; assay: Antimicrobial activity against Candida albicans by poison food technique; type: functional
[2] = test system: Salmonella typhi; assay: Antimicrobial activity against Salmonella typhi by well diffusion method; type: functional, Salmonella enterica subsp. enterica serovar Typhi; settings: Salmonella enterica
[3] = test system: Trichoderma; assay: Antimicrobial activity against Trichoderma sp. by poison food technique; type: functional
[4] = test system: Bacillus subtilis; assay: Antimicrobial activity against Bacillus subtilis by well diffusion method; type: functional
[5] = test system: Shigella sp.; assay: Antimicrobial activity against Shigella sp. by well diffusion method; type: functional
[6] = test system: Staphylococcus aureus; assay: Antimicrobial activity against Staphylococcus aureus by well diffusion method; type: functional
[7] = test system: Aspergillus sp.; assay: Antimicrobial activity against Aspergillus sp. by poison food technique; type: functional
[8] = test system: Escherichia coli; assay: Antimicrobial activity against Escherichia coli by well diffusion method; type: functional
[9] = test system: Streptococcus pneumoniae; assay: Antimicrobial activity against Streptococcus pneumoniae by well diffusion method; type: functional

## CN1C[C@H](C(=O)c2ccc(Cl)cc2)[C@H]2c3ccccc3OC[C@H]21
[1]
  MIC: 45 µg/mL (≈ 137 µM)
[2]
  MIC: 10 µg/mL (≈ 30.5 µM)
[3]
  MIC: 40 µg/mL (≈ 122 µM)
[4]
  MIC: 15 µg/mL (≈ 45.8 µM)
[5]
  MIC: 25 µg/mL (≈ 76.3 µM)
[6]
  MIC: 20 µg/mL (≈ 61 µM)
[7]
  MIC: 35 µg/mL (≈ 107 µM)
[8]
  MIC: 10 µg/mL (≈ 30.5 µM)
[9]
  MIC: 25 µg/mL (≈ 76.3 µM)

## O=C(c1ccc(Cl)cc1)[C@@H]1[C@H]2c3ccccc3OC[C@H]2N2CCC[C@H]12
[1]
  MIC: 25 µg/mL (≈ 70.7 µM)
[2]
  MIC: 15 µg/mL (≈ 42.4 µM)
[3]
  MIC: 30 µg/mL (≈ 84.8 µM)
[4]
  MIC: 5 µg/mL (≈ 14.1 µM)
[5]
  MIC: 5 µg/mL (≈ 14.1 µM)
[6]
  MIC: 5 µg/mL (≈ 14.1 µM)
[7]
  MIC: 25 µg/mL (≈ 70.7 µM)
[8]
  MIC: 10 µg/mL (≈ 28.3 µM)
[9]
  MIC: 10 µg/mL (≈ 28.3 µM)

## O=C(c1ccc(Cl)cc1)[C@@H]1[C@H]2c3ccccc3OC[C@H]2N2CSC[C@H]12
[1]
  MIC: 65 µg/mL (≈ 175 µM)
[2]
  MIC: 25 µg/mL (≈ 67.2 µM)
[3]
  MIC: 75 µg/mL (≈ 202 µM)
[4]
  MIC: 20 µg/mL (≈ 53.8 µM)
[5]
  MIC: 30 µg/mL (≈ 80.7 µM)
[6]
  MIC: 25 µg/mL (≈ 67.2 µM)
[7]
  MIC: 70 µg/mL (≈ 188 µM)
[8]
  MIC: 15 µg/mL (≈ 40.3 µM)
[9]
  MIC: 30 µg/mL (≈ 80.7 µM)

## O=C(c1ccc(Cl)cc1)[C@@H]1[C@H]2c3ccccc3OC[C@H]2N2Cc3ccccc3C[C@H]12
[1]
  MIC: 20 µg/mL (≈ 48.1 µM)
[2]
  MIC: 15 µg/mL (≈ 36.1 µM)
[3]
  MIC: 45 µg/mL (≈ 108 µM)
[4]
  MIC: 5 µg/mL (≈ 12 µM)
[5]
  MIC: 20 µg/mL (≈ 48.1 µM)
[6]
  MIC: 5 µg/mL (≈ 12 µM)
[7]
  MIC: 25 µg/mL (≈ 60.1 µM)
[8]
  MIC: 10 µg/mL (≈ 24 µM)
[9]
  MIC: 15 µg/mL (≈ 36.1 µM)

## CN1C[C@@]2(CCc3ccccc3C2=O)[C@H]2c3ccccc3OC[C@H]21
[1]
  MIC: 75 µg/mL (≈ 235 µM)
[2]
  MIC: 55 µg/mL (≈ 172 µM)
[3]
  MIC: 105 µg/mL (≈ 329 µM)
[4]
  MIC: 35 µg/mL (≈ 110 µM)
[5]
  MIC: 45 µg/mL (≈ 141 µM)
[6]
  MIC: 20 µg/mL (≈ 62.6 µM)
[7]
  MIC: 85 µg/mL (≈ 266 µM)
[8]
  MIC: 25 µg/mL (≈ 78.3 µM)
[9]
  MIC: 60 µg/mL (≈ 188 µM)

## O=C1c2ccccc2CC[C@]12[C@H]1c3ccccc3OC[C@H]1N1CCC[C@@H]12
[1]
  MIC: 95 µg/mL (≈ 275 µM)
[2]
  MIC: 60 µg/mL (≈ 174 µM)
[3]
  MIC: 110 µg/mL (≈ 318 µM)
[4]
  MIC: 70 µg/mL (≈ 203 µM)
[5]
  MIC: 75 µg/mL (≈ 217 µM)
[6]
  MIC: 65 µg/mL (≈ 188 µM)
[7]
  MIC: 75 µg/mL (≈ 217 µM)
[8]
  MIC: 50 µg/mL (≈ 145 µM)
[9]
  MIC: 55 µg/mL (≈ 159 µM)

## O=C1c2ccccc2CC[C@]12[C@H]1c3ccccc3OC[C@H]1N1CSC[C@@H]12
[1]
  MIC: 90 µg/mL (≈ 248 µM)
[2]
  MIC: 60 µg/mL (≈ 165 µM)
[3]
  MIC: 105 µg/mL (≈ 289 µM)
[4]
  MIC: 55 µg/mL (≈ 151 µM)
[5]
  MIC: 70 µg/mL (≈ 193 µM)
[6]
  MIC: 45 µg/mL (≈ 124 µM)
[7]
  MIC: 75 µg/mL (≈ 206 µM)
[8]
  MIC: 65 µg/mL (≈ 179 µM)
[9]
  MIC: 40 µg/mL (≈ 110 µM)

## O=C1c2ccccc2CC[C@]12[C@H]1c3ccccc3OC[C@H]1N1Cc3ccccc3C[C@@H]12
[1]
  MIC: 35 µg/mL (≈ 85.9 µM)
[2]
  MIC: 5 µg/mL (≈ 12.3 µM)
[3]
  MIC: 50 µg/mL (≈ 123 µM)
[4]
  MIC: 5 µg/mL (≈ 12.3 µM)
[5]
  MIC: 5 µg/mL (≈ 12.3 µM)
[6]
  MIC: 5 µg/mL (≈ 12.3 µM)
[7]
  MIC: 25 µg/mL (≈ 61.3 µM)
[8]
  MIC: 5 µg/mL (≈ 12.3 µM)
[9]
  MIC: 10 µg/mL (≈ 24.5 µM)

## COC(=O)Nc1nc2ccccc2[nH]1 [CARBENDAZIM]
[1]
  MIC: 10 µg/mL (≈ 52.3 µM)
[3]
  MIC: 15 µg/mL (≈ 78.5 µM)
[7]
  MIC: 15 µg/mL (≈ 78.5 µM)

## CN(C)[C@@H]1C(O)=C(C(N)=O)C(=O)[C@@]2(O)C(O)=C3C(=O)c4c(O)cccc4[C@@](C)(O)[C@H]3C[C@@H]12 [TETRACYCLINE]
[2]
  MIC: 25 µg/mL (≈ 56.3 µM)
[4]
  MIC: 10 µg/mL (≈ 22.5 µM)
[5]
  MIC: 15 µg/mL (≈ 33.8 µM)
[6]
  MIC: 15 µg/mL (≈ 33.8 µM)
[8]
  MIC: 10 µg/mL (≈ 22.5 µM)
[9]
  MIC: 20 µg/mL (≈ 45 µM)

Source: ChEMBL document CHEMBL1287775, “Stereoselective synthesis of hexahydro-3-methyl-1-arylchromeno[3,4-b]pyrrole and its annulated heterocycles as potent antimicrobial agents for human pathogens” (2010)
